US12678446B2 (PFIZER INC., priority 2020, dated 2026)

How the values were obtained:
cell toxicity CC50 = type: cell-based; settings: human; Hep-G2 cells; mean of at least two experiments; read-out: Cell Cytotoxicity CC50
[1] = system: RSV (RSV A2 ECACC, 0709161v); experiment: RSV plaque reduction assay; type: cell-based, respiratory syncytial virus; settings: human respiratory syncytial virus, HepG2, read-out: RSV A2 Plaque EC50, RSV A2 in Hep-G2 cells; mean of at least two experiments unless noted (n = 1)
Method in brief: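 Eight-point compound dilutions were premixed with RSV A2 (100 PFU/well) and applied to confluent Hep-G2 cells for 2 h, followed by a 2-day incubation at 37° C. under compound-containing 0.8% CMC overlay. EC50 comes from immunostained plaque counts relative to untreated virus wells, averaged over ≥2 runs.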

SMILES | CC50 (cell toxicity CC50) [nM] | EC50 [1] [nM]
O=C(N[C@H]1N=C(c2ccccc2)c2cccc(F)c2NC1=O)c1c(-c2ccccc2F)nn2c1OCCC2 [Example 21, N-[(3S)-9-fluoro-2-oxo-5-phenyl-1,3-dihydro-1,4-benzodiazepin-3-yl]-2-(2-fluorophenyl)-6,7-dihydro-5H-pyrazolo[5,1-b][1,3]oxazine-3-carboxamide] | > 25000 | 64
Cc1ccc(-c2nn3c(c2C(=O)N[C@H]2N=C(c4ccccc4)c4cccc(F)c4NC2=O)O[C@H](C)CC3)c(C)n1 [Example 58, (5R)-2-(2,6-Dimethyl-3-pyridyl)-N-[(3S)-9-fluoro-2-oxo-5-phenyl-1,3-dihydro-1,4-benzodiazepin-3-yl]-5-methyl-6,7-dihydro-5H-pyrazolo[5,1-b][1,3]oxazine-3-carboxamide] | > 25000 | 188
O=C(N[C@H]1N=C(c2ccccc2)c2cccc(F)c2NC1=O)c1c(-c2ccccc2F)nn2c1OCC1(CCC1)C2 [Example 185, 2-(2-Fluorophenyl)-N-[(3S)-9-fluoro-2-oxo-5-phenyl-1,3-dihydro-1,4-benzodiazepin-3-yl]spiro[5,7-dihydropyrazolo[5,1-b][1,3]oxazine-6,1′-cyclobutane]-3-carboxamide] | > 25000 | 32
C[C@H]1CCn2nc(-c3ccncc3F)c(C(=O)N[C@H]3N=C(c4ccccc4)c4cccc(F)c4NC3=O)c2O1 [Example 76, (5S)-N-[(3S)-9-fluoro-2-oxo-5-phenyl-1,3-dihydro-1,4-benzodiazepin-3-yl]-2-(3-fluoropyridin-4-yl)-5-methyl-6,7-dihydro-5H-pyrazolo[5,1-b][1,3]oxazine-3-carboxamide] | > 25000 | 93
C[C@@H]1CCn2nc(-c3ccc4c(cnn4C)c3)c(C(=O)N[C@H]3N=C(c4ccccc4)c4cccc(F)c4NC3=O)c2O1 [Example 83, (5R)-5-Methyl-2-(1-methylindazol-5-yl)-N-[(3S)-9-fluoro-2-oxo-5-phenyl-1,3-dihydro-1,4-benzodiazepin-3-yl]-6,7-dihydro-5H-pyrazolo[5,1-b][1,3]oxazine-3-carboxamide] | > 25000 | 115
C[C@H]1CCn2nc(-c3ccc(N4C[C@H]5C[C@@H]4CO5)nc3)c(C(=O)N[C@H]3N=C(c4ccccc4)c4cccc(F)c4NC3=O)c2O1 [Example 94, (5S)-5-Methyl-N-[(3S)-9-fluoro-2-oxo-5-phenyl-1,3-dihydro-1,4-benzodiazepin-3-yl]-2-[6-[(1R,4R)-2-oxa-5-azabicyclo[2.2.1]heptan-5-yl]pyridin-3-yl]-6,7-dihydro-5H-pyrazolo[5,1-b][1,3]oxazine-3-carboxamide] | > 25000 | 44
Cc1ccc(-c2nn3c(c2C(=O)N[C@H]2N=C(c4ccccc4)c4cccc(F)c4NC2=O)O[C@H](C)CC3)c(F)n1 [Example 73, (5R)-2-(2-Fluoro-6-methylpyridin-3-yl)-5-methyl-N-[(3S)-9-fluoro-2-oxo-5-phenyl-1,3-dihydro-1,4-benzodiazepin-3-yl]-6,7-dihydro-5H-pyrazolo[5,1-b][1,3]oxazine-3-carboxamide] | > 25000 | 91
CCS(=O)(=O)N1CCC(c2nn3c(c2C(=O)N[C@H]2N=C(c4ccccc4)c4cccc(F)c4NC2=O)O[C@H](C)CC3)CC1 [Example 201, (5R)-2-(1-Ethylsulfonylpiperidin-4-yl)-N-[(3S)-9-fluoro-2-oxo-5-phenyl-1,3-dihydro-1,4-benzodiazepin-3-yl]-5-methyl-6,7-dihydro-5H-pyrazolo[5,1-b][1,3]oxazine-3-carboxamide] | > 25000 | 49
CCc1ccc(-c2nn3c(c2C(=O)N[C@H]2N=C(c4ccccc4)c4cccc(F)c4NC2=O)OCC2(CCC2)C3)cn1 [Example 177, 2-(6-Ethylpyridin-3-yl)-N-[(3S)-9-fluoro-2-oxo-5-phenyl-1,3-dihydro-1,4-benzodiazepin-3-yl]spiro[5,7-dihydropyrazolo[5,1-b][1,3]oxazine-6,1′-cyclobutane]-3-carboxamide] | > 25000 | 125
Cc1cnc(F)c(-c2nn3c(c2C(=O)N[C@H]2N=C(c4ccccc4)c4cccc(F)c4NC2=O)OCCC3)c1 [Example 43, 2-(2-Fluoro-5-methylpyridin-3-yl)-N-[(3S)-9-fluoro-2-oxo-5-phenyl-1,3-dihydro-1,4-benzodiazepin-3-yl]-6,7-dihydro-5H-pyrazolo[5,1-b][1,3]oxazine-3-carboxamide] | > 25000 | 101
C[S+]([O-])c1ccc(-c2nn3c(c2C(=O)N[C@H]2N=C(c4ccccc4)c4cccc(F)c4NC2=O)OCCC3)c(F)c1 (stereo partly drawn) [Example 194, 2-(2-Fluoro-4-methylsulfinylphenyl)-N-[(3S)-9-fluoro-2-oxo-5-phenyl-1,3-dihydro-1,4-benzodiazepin-3-yl]-6,7-dihydro-5H-pyrazolo[5,1-b][1,3]oxazine-3-carboxamide] | > 25000 | 43
CCc1ccc(-c2nn3c(c2C(=O)N[C@H]2N=C(c4ccccc4)c4cccc(F)c4NC2=O)O[C@@H](C)CC3)cn1 [Example 127, (5S)-2-(6-Ethylpyridin-3-yl)-N-[(3S)-9-fluoro-2-oxo-5-phenyl-1,3-dihydro-1,4-benzodiazepin-3-yl]-5-methyl-6,7-dihydro-5H-pyrazolo[5,1-b][1,3]oxazine-3-carboxamide] | > 25000 | 41
C[C@@H]1CCn2nc(-c3ccc(CO)nc3)c(C(=O)N[C@H]3N=C(c4ccccc4)c4cccc(F)c4NC3=O)c2O1 [Example 155, (5R)-N-[(3S)-9-fluoro-2-oxo-5-phenyl-1,3-dihydro-1,4-benzodiazepin-3-yl]-2-[6-(hydroxymethyl)pyri-din-3-yl]-5-methyl-6,7-dihydro-5H-pyrazolo[5,1-b][1,3]oxazine-3-carboxamide] | > 25000 | 219
C[C@@H]1CCn2nc(Nc3ccccc3)c(C(=O)N[C@H]3N=C(c4ccccc4)c4ccccc4NC3=O)c2O1 [Example 96, (5R)-2-Anilino-5-methyl-N-[(3S)-2-oxo-5-phenyl-1,3-dihydro-1,4-benzodiazepin-3-yl]-6,7-dihydro-5H-pyrazolo[5,1-b][1,3]oxazine-3-carboxamide] | > 25000 | 464
C[C@@H]1CCn2nc(-c3ccc(CO)cc3F)c(C(=O)N[C@H]3N=C(c4ccccc4)c4ccccc4NC3=O)c2O1 [Example 154, (5R)-2-[2-Fluoro-4-(hydroxymethyl)phe-nyl]-5-methyl-N-[(3S)-2-oxo-5-phenyl-1,3-dihydro-1,4-benzodiazepin-3-yl]-6,7-dihydro-5H-pyrazolo[5,1-b][1,3]oxazine-3-carboxamide] | > 25000 | 91
C[C@@H]1CCn2nc(-c3ccc(S(=O)(=O)N(C)C)cc3F)c(C(=O)N[C@H]3N=C(c4ccccc4)c4cccc(F)c4NC3=O)c2O1 [Example 200, (5R)-2-[4-(Dimethylsulfamoyl)-2-fluorophenyl]-N-[(3S)-9-fluoro-2-oxo-5-phenyl-1,3-dihydro-1,4-benzodiazepin-3-yl]-5-methyl-6,7-dihydro-5H-pyrazolo[5,1-b][1,3]oxazine-3-carboxamide] | > 25000 | 1
